Data reported in patent US20150209342A1, “TOPICAL RETINOID FORMULATIONS, PROCESSES FOR MAKING AND METHODS OF USE” (Allergan, Inc., priority 2014, published 2015).
Converted amounts (≈) assume the structure as drawn.

Assay: Tazarotene solubility in water, glycerin, and 70% glycerin solution
Format: physicochemical

solubility (70% glycerin solution, aqueous with cosolvent or surfactant or cyclodextrin, 70% Glycerin, 5 °C): 0.27 µg/mL (≈ 0.768 µM)
solubility (70% glycerin solution, aqueous with cosolvent or surfactant or cyclodextrin, 70% Glycerin, 25 °C): 0.68 µg/mL (≈ 1.93 µM)
solubility (70% glycerin solution, aqueous with cosolvent or surfactant or cyclodextrin, 70% Glycerin, 40 °C): 4.43 µg/mL (≈ 12.6 µM)
solubility (glycerin, 5 °C, organic solvent or mixture): 72.6 µg/mL (≈ 207 µM)
solubility (glycerin, 25 °C, organic solvent or mixture): 34.7 µg/mL (≈ 98.7 µM)
solubility (glycerin, 40 °C, organic solvent or mixture): 527 µg/mL (≈ 1500 µM)
solubility of tazarotene in glycerin (in words): low solubility
solubility (water, 5 °C): 0.07 µg/mL (≈ 0.199 µM)
solubility (water, 25 °C): 0.04 µg/mL (≈ 0.114 µM)
solubility (water, 40 °C): 1.7 µg/mL (≈ 4.84 µM)
SMILES: CCOC(=O)c1ccc(C#Cc2ccc3c(c2)C(C)(C)CCS3)nc1 [Tazarotene]
